Drawing on ChEMBL document CHEMBL4184208, “Theoretical research in structure characteristics of different inhibitors and differences of binding modes with CBP bromodomain” (Bioorg Med Chem, 2018), this text covers IC50 for two compounds.

The experiment deals with CREB-binding protein/Histone acetyltransferase p300 (Homo sapiens, UniProt Q09472+Q92793). Put plainly: Inhibition of human His-FLAG tagged CBP/EP300 (1082 to 1197 residues) using H4-TetraAc-biotin peptide as substrate after 90 mins by AlphaLISA method. Type of experiment: protein assay.

As to `C[C@@H]1CC(=O)Nc2cccc(-c3cnn(C(C)(C)C)c3)c2N1`, the IC50 (commonly the concentration that gives 50% inhibition) stood at 0.47 µM.

In turn, `C[C@@H]1CC(=O)Nc2ccccc2N1` displayed an IC50 of 14 µM.
